Measured values reported in the supplement of paper PMC11061612.

Experiments:
Test in all cases: Bliss excess, mean over the matrix (fraction); higher = more synergy
[1] = tested on: A4-Fuk (B-Lymphoblastic Leukemia)
Method in brief: (§1)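 Bliss excess equals the observed combination effect minus the expected value EA + EB − EA·EB, where EA and EB are the effects of each agent alone. Combination Emax is the second-highest inhibition within the matrix. Inhibition was scaled from CellTiter-Glo 2.0 luminescence, with 0 set by vehicle wells and 1 by blank wells, after 72 hours of two-drug dosing of cells plated in 1536-well plates.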

[2] = tested on: ALL-SIL (T-Lymphoblastic Leukemia)
Method in brief: as §1

[3] = tested on: CADO-ES1 (Ewing's Sarcoma)
Method in brief: as §1

[4] = tested on: COLO-668 (Small Cell Lung Carcinoma)
Method in brief: as §1

[5] = tested on: DU-145 (Prostate Carcinoma)
Method in brief: as §1

[6] = tested on: EFO-21 (Ovarian Carcinoma)
Method in brief: as §1

[7] = tested on: EJM (Plasma Cell Myeloma)
Method in brief: as §1

[8] = tested on: EW-1 (Ewing's Sarcoma)
Method in brief: as §1

[9] = tested on: G-401 (Other Solid Carcinomas)
Method in brief: as §1

[10] = tested on: KOPN-8 (B-Lymphoblastic Leukemia)
Method in brief: as §1

[11] = tested on: LC-1-sq (Squamous Cell Lung Carcinoma)
Method in brief: as §1

[12] = tested on: MDA-MB-453 (Breast Carcinoma)
Method in brief: as §1

[13] = tested on: MOG-G-UVW (Low Grade Glioma)
Method in brief: as §1

[14] = tested on: NCI-H1355 (Lung Adenocarcinoma)
Method in brief: as §1

[15] = tested on: NCI-H1993 (Lung Adenocarcinoma)
Method in brief: as §1

[16] = tested on: NCI-H2122 (Lung Adenocarcinoma)
Method in brief: as §1

[17] = tested on: OACM5-1 (Esophageal Adenocarcinoma)
Method in brief: as §1

[18] = tested on: SK-LU-1 (Lung Adenocarcinoma)
Method in brief: as §1

[19] = tested on: SKN (Other Solid Carcinomas)
Method in brief: as §1

[20] = tested on: SNU-387 (Hepatocellular Carcinoma)
Method in brief: as §1

Row | Structure (SMILES) | Bliss excess [1] | Bliss excess [2] | Bliss excess [3] | Bliss excess [4] | Bliss excess [5] | Bliss excess [6] | Bliss excess [7] | Bliss excess [8] | Bliss excess [9] | Bliss excess [10] | Bliss excess [11] | Bliss excess [12] | Bliss excess [13] | Bliss excess [14] | Bliss excess [15] | Bliss excess [16] | Bliss excess [17] | Bliss excess [18] | Bliss excess [19] | Bliss excess [20]
1 | COc1nnc2ccc(N3CCC(c4ccc(OCCN5CCN(C)C(=O)[C@H]5C)cc4)CC3)nn12 [AZD5153] + C[C@@H]1COCCN1C2=NC(=NC(=C2)C3(CC3)[S@](=N)(=O)C)C4=C5C=CNC5=NC=C4 [AZD6738] (first compound max 1 µM, 7x7, partner max 10 µM) | -0.117 | 0.079 | -0.0881 | 0.0137 | -0.0094 | -0.0069 | 0.0187 | 0.0041 | -0.0078 | -0.0114 | 0.0175 | -0.0534 | -0.046 | -0.006 | -0.0462 | -0.0163 | 0.0593 | 0.0147 | 0.0365 | -0.0501
2 | Cn1cnc2c(F)c(Nc3ccc(Br)cc3Cl)c(C(=O)NOCCO)cc21 [Selumetinib] + C[C@@H]1COCCN1C2=NC(=NC(=C2)C3(CC3)[S@](=N)(=O)C)C4=C5C=CNC5=NC=C4 [AZD6738] (first compound max 10 µM, 7x7, partner max 10 µM) | -0.0481 | 0.0106 | -0.0031 | 0.038 | -0.0441 | -0.0192 | -0.0321 | 0.0014 | 0.0257 | -0.154 | 0.0238 | -0.05 | -0.0662 | -0.0213 | -0.0274 | 0.0539 | -0.0096 | -0.116 | 0.0406 | -0.0126
3 | NC1(C(=O)N[C@@H](CCO)c2ccc(Cl)cc2)CCN(c2ncnc3[nH]ccc23)CC1 [Capivasertib] + CCN(CCO)CCCOc1ccc2c(Nc3cc(CC(=O)Nc4cccc(F)c4)[nH]n3)ncnc2c1 [AZD2811] (first compound max 10 µM, 7x7, partner max 1 µM) | -0.0161 | -0.0631 | -0.0618 | 0.0318 | -0.0485 | -0.0156 | 0.0798 | 0.0388 | -0.0072 | -0.0632 | 0.0488 | 0.002 | 0.0415 | 0.045 | 0.0065 | -0.0827 | -0.0245 | -0.103 | -0.0219 | -0.0504
4 | CCN(CCO)CCCOc1ccc2c(Nc3cc(CC(=O)Nc4cccc(F)c4)[nH]n3)ncnc2c1 [AZD2811] + C=CCn1c(=O)c2cnc(Nc3ccc(N4CCN(C)CC4)cc3)nc2n1-c1cccc(C(C)(C)O)n1 [AZD1775] (first compound max 1 µM, partner max 1 µM) | -0.0665 | -0.0408 | -0.0086 | 0.0144 | -0.0116 | -0.062 | -0.0443 | -0.0026 | 0.0421 | 0.0507 | 0.0025 | 0.0236 | -0.0202 | -0.0067 | 0.0219 | 0.0618 | 0.0426 | -0.0132 | -0.0278 | -0.0155
5 | CC(=O)c1c(C)c2cnc(Nc3ccc(N4CCNCC4)cn3)nc2n(C2CCCC2)c1=O [Palbociclib] + Cc1c2c(nn1C)CSCc1cc(n(C)n1)CSc1cc(c3ccccc3c1)OCCCc1c(C(=O)O)n(C)c3c-2c(Cl)ccc13 [AZD5991] (first compound max 10 µM, 7x7, partner max 1 µM) | 0.0579 | -0.0576 | -0.0356 | -0.0288 | -0.0216 | -0.0458 | -0.0517 | 0.0294 | 0.0308 | 0.0082 | -0.0587 | -0.0218 | -0.0122 | -0.0147 | 0.0186 | -0.0218 | -0.0456 | -0.0693 | -0.0465 | -0.0515
6 | Cc1c2c(nn1C)CSCc1cc(n(C)n1)CSc1cc(c3ccccc3c1)OCCCc1c(C(=O)O)n(C)c3c-2c(Cl)ccc13 [AZD5991] + C1CN(CCC1(C(=O)N[C@@H](CCO)C2=CC=C(C=C2)Cl)N)C3=NC=NC4=C3C=CN4 [Capivasertib] (first compound max 1 µM, 7x7, partner max 3 µM) | -0.0011 | -0.0384 | -0.029 | 0.0516 | 0.007 | -0.0406 | 0.0504 | 0.0232 | 0.0486 | -0.0468 | -0.0015 | 0.05 | -0.0173 | -0.0016 | 0.0523 | 0.0061 | -0.0123 | -0.0042 | -0.024 | 0.0124
7 | CN(CCO)CC[C@H](CSc1ccccc1)Nc1ccc(S(=O)(=O)NC(=O)c2ccc(N3CCC([C@@H](O)c4ccccc4-c4ccc(Cl)cc4)CC3)cc2)cc1S(=O)(=O)C(F)(F)F [AZD4320] + CN(C)CCCOc1ccc(-c2ccc3ncc4c(c3c2)n(C2CCOCC2)c(=O)n4C)cn1 [AZD0156] (first compound max 1 µM, 7x7, partner max 1 µM) | -0.0077 | 0.0035 | 0.0269 | 0.0435 | -0.0284 | -0.0579 | 0.0079 | 0.0527 | -0.0506 | -0.052 | 0.0065 | -0.0449 | -0.0476 | -0.0888 | -0.0734 | -0.0121 | -0.0016 | -0.0759 | -0.0296 | -0.0208
8 | CCN(CCO)CCCOc1ccc2c(Nc3cc(CC(=O)Nc4cccc(F)c4)[nH]n3)ncnc2c1 [AZD2811] + O=C(c1cc(Cc2n[nH]c(=O)c3ccccc23)ccc1F)N1CCN(C(=O)C2CC2)CC1 [Olaparib] (first compound max 1 µM, 7x7, partner max 10 µM) | -0.0212 | -0.0525 | 0.0242 | -0.0032 | -0.0105 | -0.0409 | 0.0335 | 0.0008 | 0.0174 | 0.0034 | 0.0434 | -0.0253 | -0.0088 | 0.0006 | -0.0211 | 0.0155 | 0.0082 | -0.0373 | -0.0168 | -0.0755
9 | NC1(C(=O)N[C@@H](CCO)c2ccc(Cl)cc2)CCN(c2ncnc3[nH]ccc23)CC1 [Capivasertib] + COc1nnc2ccc(N3CCC(c4ccc(OCCN5CCN(C)C(=O)[C@H]5C)cc4)CC3)nn12 [AZD5153] (first compound max 10 µM, 7x7, partner max 1 µM) | -0.0465 | -0.0024 | 0.0331 | 0.0552 | 0.0276 | -0.046 | 0.0732 | 0.0867 | 0.012 | -0.0463 | 0.0814 | -0.0148 | 0.0173 | 0.0316 | 0.0372 | 0.0243 | -0.019 | 0.0081 | 0.0238 | -0.004
10 | NC1(C(=O)N[C@@H](CCO)c2ccc(Cl)cc2)CCN(c2ncnc3[nH]ccc23)CC1 [Capivasertib] + Cn1cnc2c(F)c(Nc3ccc(Br)cc3Cl)c(C(=O)NOCCO)cc21 [Selumetinib] (first compound max 10 µM, 7x7, partner max 10 µM) | 0.0675 | 0.0381 | -0.0008 | -0.0088 | 0.0037 | -0.0352 | 0.08 | 0.0819 | 0.0695 | 0.106 | 0.0027 | 0.0079 | 0.0622 | 0.0132 | 0.0372 | 0.0107 | 0.0183 | -0.0486 | -0.0264 | -0.0521
11 | CC(=O)c1c(C)c2cnc(Nc3ccc(N4CCNCC4)cn3)nc2n(C2CCCC2)c1=O [Palbociclib] + CC1(C)CCC(CN2CCN(c3ccc(C(=O)NS(=O)(=O)c4ccc(NCC5CCOCC5)c([N+](=O)[O-])c4)c(Oc4cnc5[nH]ccc5c4)c3)CC2)=C(c2ccc(Cl)cc2)C1 [Venetoclax] (first compound max 10 µM, 7x7, partner max 1 µM) | -0.0926 | 0.0428 | -0.177 | -0.0554 | -0.0406 | -0.0638 | -0.0211 | 0.0441 | 0.0529 | -0.0341 | -0.0161 | 0.0091 | -0.0282 | -0.0031 | 0.0108 | -0.0327 | 0.108 | 0.0024 | -0.0402 | -0.0558
12 | Cn1cnc2c(F)c(Nc3ccc(Br)cc3Cl)c(C(=O)NOCCO)cc21 [Selumetinib] + CCN(CCO)CCCOc1ccc2c(Nc3cc(CC(=O)Nc4cccc(F)c4)[nH]n3)ncnc2c1 [AZD2811] (first compound max 10 µM, 7x7, partner max 1 µM) | 0.176 | -0.0031 | -0.0515 | -0.0161 | -0.0077 | -0.0877 | 0.0145 | 0.0332 | 0.0143 | 0.0253 | -0.0324 | -0.026 | 0.0279 | 0.0102 | 0.0327 | -0.0258 | 0.0404 | -0.098 | -0.068 | -0.0412
